Key:
Rv0187 [1] = target: T1, Rv0187 (Mycobacterium tuberculosis, UniProt O07431); type: biochemical; design: pLATE31-Rv0187 (C-terminal His6-tag)
Rv0187 [2] = target: T1, Rv0187; test: co-crystal structure, […] Å; type: binding; design: C-terminal His6-tag after a TEV cleavage site (pLATE31-Rv0187-TEV)
Rv0187 [3] = target: T1, Rv0187; test: biochemical; type: binding
O=C(O)c1ccc(O)c(O)c1 = test: purified protein; details: SAM; Mg2+
COc1cc(C(=O)O)cc(O)c1O = test: purified protein; details: SAM; Mg2+
[4] = test system: O=C(O)/C=C/c1ccc(O)c(O)c1; test: purified protein; details: SAM; Mg2+
SEC = target: the molecule itself; test: SEC

T1 sequence (O07431 whole entry): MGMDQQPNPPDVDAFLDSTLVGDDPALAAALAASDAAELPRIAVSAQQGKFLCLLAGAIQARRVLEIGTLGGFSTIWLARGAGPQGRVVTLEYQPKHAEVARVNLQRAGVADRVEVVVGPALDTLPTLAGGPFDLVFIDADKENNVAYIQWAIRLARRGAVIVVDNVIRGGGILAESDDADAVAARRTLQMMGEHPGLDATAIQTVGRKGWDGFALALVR

## O=Cc1ccc(O)c(O)c1 [DHA, 3,4-dihydroxy-benzaldehyde]
Rv0187 [1]
  in vitro methyltransfer assay, HPLC/LC-MS: DHA, dopamine and CA were preferentially methylated at the meta position

## O=C(O)c1cc(O)c(O)c(O)c1 [GA, gallic acid]
Rv0187 [1]
  in vitro methyltransfer assay, HPLC/LC-MS: PCA, 5OMeBA, and GA were more readily modified at the para-hydroxyl group

## Nc1ncnc2c1ncn2[C@@H]1O[C@H](CSCC[C@H](N)C(=O)O)[C@@H](O)[C@H]1O [SAH, S-adenosyl-l-homocysteine]
Rv0187 [2]
  co-crystal structure, 1.64 Å: each subunit exhibits the unambiguous presence of a divalent metal ion and SAH

## C[S+](CC[C@H](N)C(=O)[O-])C[C@H]1O[C@@H](n2cnc3c(N)ncnc32)[C@H](O)[C@@H]1O (stereo partly drawn) [SAM, S-adenosyl-l-methionine]
Rv0187 [3]
  Kd: 9.3 ± 0.7 µM

## NCCc1ccc(O)c(O)c1 [dopamine]
Rv0187 [1]
  in vitro methyltransfer assay, HPLC/LC-MS: DHA, dopamine and CA were preferentially methylated at the meta position

## O=c1[nH]c(=O)n([C@@H]2O[C@H](CO)[C@@H](O)[C@H]2O)cc1O [ho^5U, 5-hydroxyuridine]
Rv0187 [1]
  in vitro methyltransfer assay, HPLC/LC-MS: methylation of 5-hydroxyuridine (ho^5U) yielded a single product, 5-methoxyuridine (mo^5U)

## O=c1c(O)c(-c2ccc(O)c(O)c2)oc2cc(O)cc(O)c12 [quercetin]
Rv0187 [1]
  in vitro methyltransfer assay, HPLC/LC-MS: Rv0187 was able to methylate flavonoids (luteolin and quercetin), although the precise methylation site could not be assigned

## Rv0187 (Mycobacterium tuberculosis H37Rv)
O=C(O)c1ccc(O)c(O)c1
  Km: 150 ± 20 µM
COc1cc(C(=O)O)cc(O)c1O
  Km: 30 ± 4 µM
[4]
  Km: 490 ± 170 µM

B1: Rv0187 fused with a C-terminal His6-tag (pLATE31-Rv0187 construct) (enzyme)
chain: MDQQPNPPDVDAFLDSTLVGDDPALAAALAASDAAELPRIAVSAQQGKFLCLLAGAIQARRVLEIGTLGGFSTIWLARGAGPQGRVVTLEYQPKHAEVARVNLQRAGVADRVEVVVGPALDTLPTLAGGPFDLVFIDADKENNVAYIQWAIRLARRGAVIVVDNVIRGGGILAESDDADAVAARRTLQMMGEHPGLDATAIQTVGRKGWDGFALALVR
notes: also called MTB Rv0187; C-terminal His6-tagged construct; not shown: His6, C-terminal, kept
SEC
  stoichiometry N: 2

Source: publication PMC6543040, “Structural and biochemical characterization of Rv0187, an O-methyltransferase from Mycobacterium tuberculosis” (Scientific Reports, 2019)
